From patent EP0314302A2, “Herbicidal o-carbomethoxy-sulfonylureas” (E.I. DU PONT DE NEMOURS AND COMPANY, priority 1987, dated 1989) come the findings set out here.

The test system of one test is Goosegrass. Kind of test: Test 11 windowsill flats, postemergence. The test is classed as in vivo, Eleusine indica. Conditions: Postemergence 32 g/ha, 0.25% X-77 surfactant, scale 0-100. The procedure: (§1) Budded citrus seedlings were planted in 30-liter plastic pots which were also seeded with sandbur, guineagrass, narrowleaf panicum, common ragweed, yellow nutsedge, purple nutsedge and bindweed. Compound I was applied preemergence and postemergence to the weeds. Treatments were sprayed to simulate the trunk-to-trunk herbicide application method used in some citrus groves. The compound was also applied postemergence to weeds grown in windowsill flats. The flats were filled with planting medium and seeded with morningglory (Ipomoea spp.). purple nutsedge (Cyperus rotundus), pigweed (Amaranthus spp.), bindweed (Convolvulus spp.), narrowleaf panicum (Panicum maximum), common ragweed (Ambrosia artemisiifolia), sandbur (Cenchrus echinatus), itchgrass (Rottboellia exaltata), johnsongrass (Sorghum halepense), guineagrass (Panicum maximum), smooth crabgrass (Digitaria ischaemum), broadleaf signalgrass (Brachiaria platyphylla), bermudagrass (Cynodon dactylon), goosegrass (Eleusine indica), large crabgrass (Digitaria sanguinalis) and yellow nutsedge (Cyperus esculentus).
(§2) The compound was formulated and sprayed with 0.25% X-77 surfactant in water. Plants were visually rated 21 and 29 days after treatment and compared with appropriate controls. Injury ratings were based on the scale of 0 to 100, where 0 indicates no effect, 20 indicates minimum effect and 100 indicates complete control. […]

The subject of the next test is Trumpetcreeper. Description: Test 12 over-the-top application, postemergence. The test is classed as in vivo, Campsis radicans. Particulars: 26 days after treatment, scale 0-100. The source says:
The object of this test was to evaluate the safety of sour lemon to the over-the-top application of Compound I and control of lantana (Lantana camara) and trumpetcreeper (Campsis radicans). Plants were sprayed postemergence with Compound I formulated in a non-phytotoxic solvent. Treated plants were visually rated 26 days after treatment and compared with appropriate controls. Injury ratings were based on the scale of 0 to 100, where 0 indicates no effect, 20 indicates minimal effect and 100 indicates complete control.

The subject of another test is Purple nutsedge. Kind of test: Test 11 citrus pots, preemergence to the weeds. The test is classed as in vivo, Cyperus rotundus. Conditions: Preemergence 32 g/ha; 0.25% X-77 surfactant; scale 0-100. The procedure: as §1, §2
In the next test the test system is Wild oats. Description: Test 10 postemergence safety to crops and weed control. The test is classed as in vivo, Avena fatua. Conditions: 16 g/ha, scale 0-100. On the procedure: The object of these tests was to evaluate the compound of this invention for postemergence safety to crops and weed control. Seedling and budded Macedine grapes were grown in 11.4-cm pots. Flax, green foxtail (Setaria viridis), "Morex" barley, wild oats (Avena fatua), "Era" wheat, annual ryegrass (Lolium multiflorum), wild radish (Raphanus raphanistrum), rape, sunflower, chickweed (Stellaria media) and wild buckwheat (Polygonum convolvulus) were seeded in windowsill pots.
The plants were sprayed postemergence with Compound I in a non-phytotoxic solvent. Plants were visually rated 15 and 27 days after treatment (DAT). Injury and weed control ratings were based on the scale of 0 to 100 where 0 = no effect, 20 minimal control and 100 = complete control.

The next test concerns weed. Kind of test: Test 6 effect of surfactants, postemergence. The test is classed as in vivo. Conditions: addition of a surfactant. The source says:
The object of this test was to evaluate the effect of surfactants and plant growth stage on the efficacy of the compound of this invention. Plastic windowsill pots were filled with planting medium and seeded with yellow nutsedge (Cyperus esculentus), large crabgrass (Digitaria sanguinalis), goosegrass (Elsusine indica), bermudagrass (Cynodon dactylon), broadleaf signalgrass (Brachiara platyphalla), smooth crabgrass (Digitaria ischaemum), guinea grass (Panicum maximum) and johnsongrass (Sorghum halapense). Coffee (Coffea spp) plants with 2 to 4 branches were included in one test.
Plants were treated postemergence with Compound I formulated with different surfactants or a non-phytotoxic carrier made up of acetone-humectant-water-surfactant.

A further test has as its system Sandbur. Kind of test: Test 11 windowsill flats, postemergence. The test is classed as in vivo, Cenchrus echinatus. Conditions: Postemergence 32 g/ha, 0.25% X-77 surfactant, scale 0-100. On the procedure: as §1, §2
The test system of the next test is Matricaria. Description: Test 7 postemergence. The test is classed as in vivo, Matricaria spp. Particulars: scale 0-100. On the procedure:
Individual 11.4-cm plastic pots filled with planting medium were seeded with rape, wild radish (Raphanus raphanistruna). tansy mustard (Descurainia pinnata), ball mustard (Neslia paniculata), black mustard (Brassica nigra), yellow mustard, brown mustard, lentils, safflower, flax, sunflower, peanut, vetch, alfalfa, field bean, pea, violet (Viola spp), Kochia (Kochia spp), Russian thistle (Salsola spp), Matricaria spp, groundsel (Senecio spp), shepherdspurse (Capsella bursa-pastoris), nightshade (Solanum spp), sowthistle (Sonchus spp), sugar beet, wheat, "Bonanza" barley and "Morex" barley, Kentucky bluegrass (Poa pratensis), red clover (Trifolium pratense), dandelion (Taraxacum spp) and buckhorn plantain (Plantago lanceolata).
Plants were treated postemergence with the compound formulated with a non-phytotoxic carrier. Plants were visually rated 18 days after treatment (DAT). Response ratings were based on the scale of 0 to 100 where 0 = no effect, 20 = minimal injury and 100 = complete control.

A further test concerns Goldenrod. Description: Test 4 plantation crop weeds, postemergence. Conditions: Table 6, profusely branching, scale 0-100. The test is classed as in vivo, Solidago spp. The source says:
The object of this test was to evaluate the efficacy of the compound of this invention on weeds that infest some plantation crops at different growth stages of the weeds. Asystasia intrusa, Mikania cordata, goldenrod Solidago spp, Boston fern Nephrolepis exalata, and lalang Imparata cylindrica were planted in 15-cm plastic pots. Plants were sprayed postemergence with Compound I in a non-phytotoxic solvent. The Asystasia plants ranged in growth from 4 leaves to 9 leaves and very branched, Mikania had 6 leaves to vining, the goldenrod was branching and the Boston fern was growing vigorously. The degree of weed control was visually rated 20 to 24 days after treatment (DAT). Control ratings are based on the scale of 0 to 100 where 0 = no effect, 20 = minimal control and 100 = complete control. Variations in the results of the tests could be due to the fact that the tests were run at different times of the year or due to the stage of growth of the weeds.

On to `COC(=O)c1cccnc1S(=O)(=O)NC(=O)Nc1nc(OC)cc(OC)n1` [Compound I, 2-[[(4,6-dimethoxypyrimidin-2-yl)aminocarbonyl]aminosulfonyl]-3-pyridinecarboxylic acid, methyl ester], for which the Injury ratings with Goosegrass is on record as 90; in the test on Trumpetcreeper (8 g/ha) it was 0; in the test on Trumpetcreeper (16 g/ha), 20; in the test on Trumpetcreeper (32 g/ha) it was 40; with Purple nutsedge, 100; in the test on Sandbur, 100. For the same compound, the “Plant Injury Rating 15 DAT” value in the test on Wild oats is reported as 100. Also, the weed control entry in the test with weed is recorded as “could improve the weed control”. The “Plant Injury Rating 18 DAT” value with Matricaria (16 g/ha) and with Matricaria (32 g/ha) was 100 each time. The “Control Rating 20 DAT” value in the test on Goldenrod (16 g/ha) and with Goldenrod (32 g/ha) was 30 each time.
